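Exposure lasted 48 hours, with cells grown in 96-well plates and compounds tested at five concentrations. At the GI50, growth is halved.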 Activity calls are given as the source filed them. No stated cut-off is given here; in the data, active = GI50 up to about 1.1 µM and inactive = higher.
Assays:
Assay in all cases: NCI tumour cell line growth inhibition, 48 h
SK-MEL-5 = test system: SK-MEL-5
OVCAR-8 = test system: OVCAR-8
SK-MEL-2 = test system: SK-MEL-2
UACC-257 = test system: UACC-257
SF-539 = test system: SF-539
MDA-N = test system: MDA-N
SN12C = test system: SN12C
HOP-62 = test system: HOP-62
A498 = test system: A498
IGROV-1 = test system: IGROV-1
HL-60 = test system: HL-60
NCI-H226 = test system: NCI-H226
HT-29 = test system: HT-29
NCI-H522 = test system: NCI-H522
SK-OV-3 = test system: SK-OV-3
K562 = test system: K562
NCI/ADR-RES = test system: NCI/ADR-RES
RPMI-8226 = test system: RPMI-8226
U-251 = test system: U-251
Malme-3M = test system: Malme-3M

Measured: GI50

CCOC(=O)c1sc(=S)n(-c2ccc(Cl)cc2)c1-n1cc(-c2ccccc2)c(C#N)c1N
inactive: SK-MEL-5 16.3 µM | OVCAR-8 12.1 µM | SK-MEL-2 20.4 µM | UACC-257 41.4 µM | SF-539 19.8 µM | MDA-N 50.8 µM | SN12C 18.6 µM | HOP-62 3.13 µM | A498 23.1 µM | IGROV-1 15.3 µM | HL-60 34.2 µM | NCI-H226 13.6 µM | HT-29 51.6 µM | NCI-H522 3.32 µM | SK-OV-3 16.9 µM | K562 44.4 µM | NCI/ADR-RES 16.9 µM | RPMI-8226 26.5 µM | U-251 15.2 µM

O=c1oc2c(ccc3ccccc32)cc1C1=CSC2=NCCN12
inactive: SK-MEL-5 46.3 µM | OVCAR-8 54.7 µM | SK-MEL-2 > 100 µM | UACC-257 56.1 µM | SF-539 69.7 µM | MDA-N 51.6 µM | SN12C 42.4 µM | HOP-62 35.8 µM | IGROV-1 32.7 µM | HL-60 34.7 µM | HT-29 45.3 µM | NCI-H522 30.3 µM | SK-OV-3 67.3 µM | K562 33.4 µM | NCI/ADR-RES 75.2 µM | Malme-3M 58.6 µM | RPMI-8226 42.6 µM | U-251 59.8 µM

CCOC(=O)C(C)c1nc2ccc(C(F)(F)F)cc2[nH]c1=O (stereo not drawn)
inactive: SK-MEL-5 52.7 µM | OVCAR-8 94.6 µM | SK-MEL-2 > 100 µM | UACC-257 58.7 µM | SF-539 > 100 µM | MDA-N 64.1 µM | SN12C > 100 µM | HOP-62 > 100 µM | A498 34 µM | HL-60 44.8 µM | NCI-H226 73.6 µM | HT-29 51.6 µM | SK-OV-3 > 100 µM | K562 48.5 µM | NCI/ADR-RES 37.4 µM | Malme-3M 97.7 µM | RPMI-8226 28.9 µM | U-251 > 100 µM

COC(=O)c1ccc2c(c1)CC1(C2)Cc2cc3c(c(C(=O)OC)c2C1)CCCC3 (stereo not drawn)
inactive: SK-MEL-5 21.2 µM | OVCAR-8 > 100 µM | UACC-257 48.4 µM | SF-539 > 100 µM | MDA-N 93.1 µM | SN12C 50.1 µM | HOP-62 > 100 µM | A498 32.5 µM | IGROV-1 > 100 µM | HL-60 31.5 µM | NCI-H226 96.8 µM | HT-29 55.7 µM | NCI-H522 > 100 µM | SK-OV-3 41.7 µM | K562 41.1 µM | NCI/ADR-RES 82.8 µM | Malme-3M > 100 µM | RPMI-8226 38.4 µM | U-251 61.7 µM

COc1ccc(/N=N/c2c(O)ccc3ccccc23)cc1
inactive: OVCAR-8 13.2 µM | SK-MEL-2 35.6 µM | UACC-257 > 100 µM | MDA-N > 100 µM | SN12C > 100 µM | HOP-62 13.8 µM | IGROV-1 5.47 µM | HL-60 > 100 µM | NCI-H226 17.7 µM | HT-29 17 µM | NCI-H522 23 µM | SK-OV-3 8.2 µM | NCI/ADR-RES 22.4 µM | Malme-3M 14.1 µM | U-251 15.8 µM

Nc1nc(N)c(N=O)c(OCC2CCCCC2)n1
inactive: SK-MEL-5 9.73 µM | OVCAR-8 15 µM | SK-MEL-2 11 µM | UACC-257 9.02 µM | SF-539 8.91 µM | MDA-N 11 µM | SN12C 5.15 µM | HOP-62 14.6 µM | A498 18.1 µM | IGROV-1 3.23 µM | HL-60 14.7 µM | NCI-H226 9.4 µM | HT-29 9.64 µM | NCI-H522 5.96 µM | SK-OV-3 19 µM | K562 21.9 µM | NCI/ADR-RES 18.9 µM | RPMI-8226 6.52 µM | U-251 15.7 µM

BrCCCCCOc1ccc(-c2c3ccccc3c(-c3ccc(OCCCCCBr)cc3)c3ccccc23)cc1
inactive: SK-MEL-5 > 100 µM | OVCAR-8 > 100 µM | SK-MEL-2 > 100 µM | UACC-257 > 100 µM | SF-539 > 100 µM | MDA-N > 100 µM | SN12C > 100 µM | HOP-62 > 100 µM | IGROV-1 > 100 µM | HL-60 > 100 µM | NCI-H226 > 100 µM | HT-29 > 100 µM | SK-OV-3 > 100 µM | K562 > 100 µM | NCI/ADR-RES > 100 µM | RPMI-8226 > 100 µM | U-251 > 100 µM

CC(=O)NCC1OC2COC(c3ccccc3)OC2C2N=C(c3ccccc3)OC12 (stereo not drawn)
inactive: SK-MEL-5 39.2 µM | OVCAR-8 57 µM | SK-MEL-2 53.6 µM | UACC-257 57.5 µM | SF-539 > 100 µM | MDA-N 39.1 µM | SN12C > 100 µM | HOP-62 > 100 µM | A498 37.4 µM | HL-60 26.7 µM | NCI-H226 67.5 µM | HT-29 34.8 µM | SK-OV-3 74.1 µM | K562 32.6 µM | NCI/ADR-RES 42.5 µM | Malme-3M 58.7 µM | RPMI-8226 29.4 µM | U-251 > 100 µM

From ChEMBL document CHEMBL1201862, “PubChem BioAssay data set” (2004)
